Square brackets hold non-standard residues; d marks the D form. Ends that are not written are not given here.
Columns and labels:
Format in all cases: cell-based, human
pSMAD2/3 [1] = assay: SMAD2/3 phosphorylation in IPF fibroblasts; details: 10 μM, compared to 1% DMSO vehicle or DMEM controls, FIG. 7A
Procedure: IPF fibroblasts were treated with DMEM, 1% DMSO vehicle, CSP-7 (10 μM), Var55 (10 μM), pirfenidone (500 μM), or nintedanib (100 nM). SMAD2/3 phosphorylation was determined by Western blot 24 hours following treatment. […] IPF epithelial cells were treated with DMEM (control), Var55 (100 μM), nintedanib (100 nM), control peptide 1 (CP1, 100 μM), or control peptide 2 (CP2, 100 μM). SMAD2/3 phosphorylation was determined by Western blot 24 hours following treatment. Phosphorylated SMAD2/3 protein levels were determined by normalizing to total SMAD2/3 protein (FIG. 7A and FIG. 7B). Primary lung fibroblasts from IPF patients were treated with 1% DMSO vehicle, CSP-7 (10 μM), Var55 (10 μM), pirfenidone (500 μM), or nintedanib (100 nM). SMAD2/3 phosphorylation was measured in IPF fibroblasts by a multiplex assay or Western blot analysis and phosphorylated SMAD2/3 was normalized to total SMAD2/3 protein.

CXCL7 [2] = assay: CXCL7 ELISA in supernatant of IPF lung macrophages; details: FIG. 14
Source text: (§1) Lung macrophages were either left untreated or treated with Var55. Each line represents a biological replicate of lung macrophages from an individual control subject (triangles) or an individual with IPF (circles).
(§2) Lung macrophages were collected from humans with IPF or healthy controls and cultured in vitro. Lung macrophages were either left untreated or treated with Var55. Following treatment, supernatants from the lung macrophage cultures were collected and analyzed for CXCL7 expression by ELISA.

pSMAD2/3 [3] = assay: SMAD2/3 phosphorylation in IPF epithelial cells; details: 100 μM, compared to DMEM control, FIG. 7B
Procedure: IPF fibroblasts were treated with DMEM, 1% DMSO vehicle, CSP-7 (10 μM), Var55 (10 μM), pirfenidone (500 μM), or nintedanib (100 nM). SMAD2/3 phosphorylation was determined by Western blot 24 hours following treatment. […] IPF epithelial cells were treated with DMEM (control), Var55 (100 μM), nintedanib (100 nM), control peptide 1 (CP1, 100 μM), or control peptide 2 (CP2, 100 μM). SMAD2/3 phosphorylation was determined by Western blot 24 hours following treatment. Phosphorylated SMAD2/3 protein levels were determined by normalizing to total SMAD2/3 protein (FIG. 7A and FIG. 7B).
Additional experiments were performed to determine whether phosphorylation of SMAD2/3 could be used as a biomarker associated with Var55 treatment. Epithelial cells from IPF patients were treated with DMEM (control), Var55 (100 μM), nintedanib (100 nM), control peptide 1 (CP1, 100 μM), or control peptide 2 (CP2, 100 μM). SMAD2/3 phosphorylation was measured in […] by a multiplex assay or Western blot analysis and phosphorylated SMAD2/3 was normalized to total SMAD2/3 protein.

CXCL7 [4] = assay: CXCL7 ELISA in supernatant of healthy control lung macrophages; details: FIG. 14
Source text: as §1, §2

LDH activity = tested on: LDH activity
Procedure: PCLSs were either untreated or treated with CSP-7 (10 μM or 100 μM), control peptide (CP, 100 μM), TGFβ (2 ng/mL), or pirfenidone (Pirf, 500 μM) and nintedanib (Nin, 100 nM). LDH activity was measured in the supernatant of IPF PCLSs on day 2 (left panel) or day 4 (right panel) following treatment. […] LDH activity was measured in the supernatant of IPF PCLSs on day 2 (left panel) or day 4 (right panel) following treatment.
LDH activity was also examined in the supernatants of IPF PCLSs either untreated (UT) or treated with CSP-7 (10 μM or 100 μM), control peptide (CP, 100 μM), TGFβ (2 ng/mL), or pirfenidone (Pirf, 500 μM) and nintedanib (Nin, 100 nM). LDH activity was measured using an LDH assay (Sigma-Aldrich, Cat No MAK066).

LDH activity in PCLS supernatant (LDH activity) | Substance | phosphorylation of SMAD2/3 normalized to total SMAD2/3 (pSMAD2/3 [1]) | CXCL7 in the supernatant (CXCL7 [2]) | phosphorylation of SMAD2/3 normalized to total SMAD2/3 (pSMAD2/3 [3]) | CXCL7 in the supernatant (CXCL7 [4])
 | Ac-aaEGKASFTTFTVTKGSaa-NH2 (Ac-[dA][dA]EGKASFTTFTVTKGS[dA][dA]-NH2; SMILES CC(=O)N[C@H](C)C(=O)N[C@H](C)C(=O)N[C@@H](CCC(=O)O)C(=O)NCC(=O)N[C@@H](CCCCN)C(=O)N[C@@H](C)C(=O)N[C@@H](CO)C(=O)N[C@@H](Cc1ccccc1)C(=O)N[C@H](C(=O)N[C@H](C(=O)N[C@@H](Cc1ccccc1)C(=O)N[C@H](C(=O)N[C@H](C(=O)N[C@H](C(=O)N[C@@H](CCCCN)C(=O)NCC(=O)N[C@@H](CO)C(=O)N[C@H](C)C(=O)N[C@H](C)C(N)=O)[C@@H](C)O)C(C)C)[C@@H](C)O)[C@@H](C)O)[C@@H](C)O) [Var55] | no difference | significant reduction | reduced phosphorylation | significant reduction
slight reduction | FTTFTVT [CSP-7, FTTFTVT] |  |  |  | 

From patent US20250076312A1, “BIOMARKERS FOR THE TREATMENT OF INTERSTITIAL LUNG DISEASE” (Lung Therapeutics, LLC, priority 2021, published 2025)
